Measurements reported in US20110195049A1, “COMPOSITIONS AND METHODS FOR TREATING MULTIPLE SCLEROSIS” (BIOVISTA, INC., priority 2008, published 2011).
Structures can show the parent of a compound that is named as a salt.

What was measured:
NMDA receptor = settings: dose producing the anti-NMDA effect; cited from earlier work
[1] = disturbance of coordination of movement and a sedative effect; cited from earlier work
[2] = tested on: acute EAE murine model of MS; test: Acute EAE murine model (MOG-induced), clinical score over 35 days; assay type: in vivo, female C57BL/6J mice

| Structure (SMILES) | ED50 of anti-NMDA effect (NMDA receptor) | adverse effects at doses producing the anti-NMDA effect [1] | activity (average clinical score) compared to the vehicle-only treatment group (1F) ([2]; 1.0 mg/kg IP once daily from study day 0, 35-day study, n = 10) | activity (average clinical score) compared to the vehicle-only treatment group (1F) ([2]; 10.0 mg/kg IP once daily (group 5F), at the end of the study) | activity (average clinical score) compared to the vehicle-only treatment group (1F) ([2]; 10.0 mg/kg IP once daily (group 5F), intermediate time points, days 26 and 27) |
| --- | --- | --- | --- | --- | --- |
| NC(CCCP(=O)(O)O)C(=O)O (centres unmarked) [AP5, 2-amino-5-phosphonovaleric acid] | 190 mg/kg | neurotoxic effects | – | – | – |
| Cc1ccc2c(c1)c1c(n2CCc2ccc(C)nc2)CCN(C)C1 [Dimebon, 2,8-dimethyl-5-(2-(6-methyl-3-pyridyl)ethyl)-2,3,4,5-tetrahydro-1H-pyrido[4,3-b]indole dihydrochloride] | – | – | statistically significant | not statistically significant | statistically significant |
